Measurements reported in ChEMBL document CHEMBL3046826, “Triosephosphate isomerases in Italian ryegrass ( Lolium multiflorum ): characterization and susceptibility to herbicides” (J Agric Food Chem, 2009).

Experiments:
[1] = molecular target: Triosephosphate isomerase, chloroplastic (Secale cereale) (UniProt P46225); test: Inhibition of desalted triosephosphate isomerase in Lolium multiflorum (Italian ryegrass) shoot assessed as transformation of GAP to DHAP applied at concentration of 14.4 mg/flat measured per mg protein after 48 hr by coupled enzyme assay (reference value: 9.80 +/-0.43 nmol/sec)
[2] = molecular target: Triosephosphate isomerase, chloroplastic (Secale cereale) (UniProt P46225); test: Inhibition of desalted triosephosphate isomerase in Lolium multiflorum (Italian ryegrass) shoot assessed as decrease in transformation of GAP to DHAP applied at concentration of 14.4 mg/flat measured after 48 hr by coupled enzyme assay
[3] = molecular target: Triosephosphate isomerase, chloroplastic (Secale cereale) (UniProt P46225); test: Inhibition of desalted triosephosphate isomerase in Lolium multiflorum (Italian rye grass) shoot assessed as transformation of GAP to DHAP applied at concentration of 20.0 mg/flat measured per mg protein after 48 hr by coupled enzyme assay (reference value: 9.80 +/-0.43 nmol/sec)
[4] = molecular target: Triosephosphate isomerase, chloroplastic (Secale cereale) (UniProt P46225); test: Inhibition of desalted triosephosphate isomerase in Lolium multiflorum (Italian rye grass) shoot assessed as transformation of GAP to DHAP applied at concentration of 4.43 mg/flat measured per mg protein after 48 hr by coupled enzyme assay (reference value: 9.80 +/-0.43 nmol/sec)
[5] = molecular target: Triosephosphate isomerase, chloroplastic (Secale cereale) (UniProt P46225); test: Inhibition of desalted triosephosphate isomerase in Lolium multiflorum (Italian ryegrass) shoot assessed as transformation of GAP to DHAP applied at concentration of 1.80 mg/flat measured per mg protein after 48 hr by coupled enzyme assay (reference value: 9.80 +/-0.43 nmol/sec)

Chain of Triosephosphate isomerase, chloroplastic (Secale cereale) (P46225 whole entry): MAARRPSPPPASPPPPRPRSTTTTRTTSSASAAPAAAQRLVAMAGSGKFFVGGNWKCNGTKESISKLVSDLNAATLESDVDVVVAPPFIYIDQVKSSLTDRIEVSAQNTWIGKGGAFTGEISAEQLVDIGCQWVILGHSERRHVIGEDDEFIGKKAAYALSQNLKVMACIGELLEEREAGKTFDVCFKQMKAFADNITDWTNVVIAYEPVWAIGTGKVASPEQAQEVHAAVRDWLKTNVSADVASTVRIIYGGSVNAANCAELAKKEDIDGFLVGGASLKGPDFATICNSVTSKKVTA

Compound | Activity [1] [nmol/s] | inhibition [2] [%] | further results
CCNc1nc(Cl)nc(NC(C)C)n1 | 7.2 | 26.5 | –
CCc1cccc(C)c1N(C(=O)CCl)C(C)COC (configuration not stated) | – | – | Activity [3]: 9.57 nmol/s
O=[N+]([O-])c1ccc(Oc2ccc(C(F)(F)F)cc2[N+](=O)[O-])cc1 | 6.28 | 35.9 | –
CCOC(=O)c1nc(C(Cl)(Cl)Cl)n(-c2ccc(Cl)cc2Cl)n1 | – | – | Activity [4]: 10.2 nmol/s
CCOC(=O)C(C)Oc1ccc(Oc2nc3ccc(Cl)cc3o2)cc1 (configuration not stated) | – | – | Activity [5]: 9.3 nmol/s
